# Results published in the supplement of paper PMC9763283.
# Legend:
# Test in all cases: area under growth-rate inhibition curve (AUC GRI) (dimensionless (GR-based AUC)); higher = less growth inhibition
# Conditions in all cases: exposure time: 72 h; concentrations: 0.1, 1, 10 uM
# [1] = system: BT474-LTR
# Outline: (§1)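 Six breast cancer cell line models were used: two triple-negative lines, plus parental HER2+ lines and HER2+ lines resistant to a two-drug combination, each plated at an optimised log-phase density and treated with compound at 0.1, 1 or 10 µM for 72 h. After fixation in 4% paraformaldehyde, nuclei were stained with Hoechst 33342 or DAPI, imaged and counted. Growth was corrected using Day 0 plates, untreated Day 3 plates and DMSO controls, with 2 biological replicates. These corrected counts gave the area under the growth-rate inhibition curve.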
# [2] = system: SKBR3-P
# Outline: as §1
# [3] = system: MDA-MB-231
# Outline: as §1
# [4] = system: BT474-P
# Outline: as §1
# [5] = system: MDA-MB-468
# Outline: as §1
# [6] = system: SKBR3-LTR
# Outline: as §1
SMILES,area under growth-rate inhibition curve [1],area under growth-rate inhibition curve [2],area under growth-rate inhibition curve [3],area under growth-rate inhibition curve [4],area under growth-rate inhibition curve [5],area under growth-rate inhibition curve [6]
CN[C@H](CC(=O)O)C(=O)O [NMDA (N-Methyl-D-aspartic acid)],1.09,1.07,1.04,1.08,1.04,1.08
CC(C)(Cc1ccc2ccccc2c1)NC[C@@H](O)COc1cccc(Cl)c1C#N [NPS-2143],0.815,0.833,0.874,0.808,0.817,0.794
COc1ccccc1N1CCN(CC(O)COc2cccc3ccccc23)CC1.[Cl-].[Cl-].[H+].[H+] (configuration not stated) [Naftopidil DiHCl],1.02,0.983,1.02,0.978,0.995,1.05
COc1ccccc1N1CCN(CC(O)COc2cccc3ccccc23)CC1 (configuration not stated) [Naftopidil],1.08,1,1.04,1.01,1.02,1.07
C=CCN1CCC23c4c5ccc(O)c4OC2C(OCCOCCOCCOCCOCCOCCOCCOC)CCC3(O)C1C5 (configuration not stated) [Naloxegol],0.997,1.01,0.991,1,1.02,1.01
C=CCN1CC[C@]23c4c5ccc(O)c4O[C@H]2C(=O)CC[C@@]3(O)[C@H]1C5.[Cl-].[H+] [Naloxone HCl],1.08,1.03,1.04,1.05,1.02,1.05
Cl.O=C1CC[C@@]2(O)[C@H]3Cc4ccc(O)c5c4[C@@]2(CCN3CC2CC2)[C@H]1O5 [Naltrexone HCl],1.09,1.05,1.03,1.05,1.04,1.06
Cl.c1ccc2c(CC3=NCCN3)cccc2c1 [Naphazoline HCl],1.11,1.02,1.05,1.04,1.03,1.07
CNS(=O)(=O)CCc1ccc2[nH]cc(C3CCN(C)CC3)c2c1.[Cl-].[H+] [Naratriptan],1.04,0.994,1.02,1.04,1.04,1.06
OC(CNCC(O)C1CCc2cc(F)ccc2O1)C1CCc2cc(F)ccc2O1.[Cl-].[H+] (configuration not stated) [Nebivolol],0.88,0.938,0.874,0.882,0.805,0.853
CCCc1c2oc(C(=O)O)cc(=O)c2cc2c(=O)cc(C(=O)O)n(CC)c12 [Nedocromil],1.04,1.02,1.03,1.02,1.05,1.05
Cc1cccc(C)c1NC(=O)CN1CCCC1=O [Nefiracetam],1.06,1,1.02,1.05,1.03,1.03
Cl.NCc1cnc(S)n1C1CCc2c(F)cc(F)cc2C1 (stereo not drawn) [Nepicastat (SYN-117) HCl],1.08,1.02,1.01,1.03,1,1.07
O=C(O)c1cccnc1Nc1cccc(C(F)(F)F)c1 [Niflumic acid],1.07,1.01,1.03,1.01,1.03,1.04
CN/C(=C\[N+](=O)[O-])NCCSCc1csc(CN(C)C)n1 [Nizatidine],1.07,1,1.02,1.05,1.04,1.05
Cc1cc2c(s1)Nc1ccccc1N=C2N1CCN(C)CC1 [Olanzapine],1.08,0.97,1.01,1.02,1.03,1.06
CN(C)CC/C=C1\c2ccccc2COc2ccc(CC(=O)O)cc21.Cl [Olopatadine HCl],1.1,1.02,1.04,1.04,0.999,1.02
Cc1nccn1CC1CCc2c(c3ccccc3n2C)C1=O.[Cl-].[H+] (configuration not stated) [Ondansetron HCl],1.08,1.03,1.03,1.05,1.02,1.02
Cc1ccccc1C(OCCN(C)C)c1ccccc1.O=C(O)CC(O)(CC(=O)O)C(=O)O (configuration not stated) [Orphenadrine Citrate],1.06,0.995,1.02,1.03,1.04,1.07
CCCCCCCCOc1ccccc1C(=O)Nc1ccc(C(=O)OCC[N+](C)(CC)CC)cc1.[Br-] [Otilonium Bromide],1.07,1,1.04,0.939,0.947,1.01
CCN(CC)CC#CCOC(=O)C(O)(c1ccccc1)C1CCCCC1.[Cl-].[H+] (configuration not stated) [Oxybutynin chloride],1.1,0.999,1.04,1.02,0.992,1.04
Cc1cc(C(C)(C)C)c(O)c(C)c1CC1=NCCN1.[Cl-].[H+] [Oxymetazoline hydrochloride],1.09,1.02,1.01,1.05,1.04,1.06
CC(C)Oc1ccc(-c2nc(-c3cccc4c3CC[C@@H]4NCCO)no2)cc1C#N [Ozanimod (RPC1063)],1,0.984,0.889,0.933,0.927,0.976
Cc1cc(CS(=O)(=O)c2ccccc2)cc(OCc2ccc(CN3CCC[C@@H]3CO)cc2)c1 [PF-543],1.01,1.03,1.01,0.97,0.99,1.07
Cc1nc2n(c(=O)c1CCN1CCC(c3noc4cc(F)ccc34)CC1)CCCC2O (configuration not stated) [Paliperidone],1.02,1.02,1.05,0.98,1.05,1.06
CC(=O)OC1CC2CCC3C(CCC4(C)C3CC([N+]3(C)CCCCC3)C4OC(C)=O)C2(C)CC1[N+]1(C)CCCCC1.[Br-].[Br-] (configuration not stated) [Pancuronium dibromide],1.06,0.989,1,1.01,1.01,0.978

SMILES,area under growth-rate inhibition curve [1],area under growth-rate inhibition curve [2],area under growth-rate inhibition curve [3],area under growth-rate inhibition curve [4],area under growth-rate inhibition curve [5],area under growth-rate inhibition curve [6]
Fc1ccc([C@@H]2CCNC[C@H]2COc2ccc3c(c2)OCO3)cc1.[Cl-].[H+] [Paroxetine HCl],0.927,0.955,0.965,0.931,0.912,0.927
NCCCCC1NC(=O)C(Cc2c[nH]c3ccccc23)NC(=O)C(c2ccccc2)NC(=O)C2CC(OC(=O)NCCN)CN2C(=O)C(Cc2ccccc2)NC(=O)C(Cc2ccc(OCc3ccccc3)cc2)NC1=O (configuration not stated) [Pasireotide],1.04,1.03,1.03,1.02,1.03,1.05
Cc1cccn2c(=O)c(-c3nnn[n-]3)cnc12.[K+] [Pemirolast Potassium],1.05,1.03,1.05,1.04,1.04,1.05
CC(=O)CCCCn1c(=O)c2c(ncn2C)n(C)c1=O [Pentoxifylline],1.03,1.02,1.04,1,1.04,1.05
N#Cc1ccccc1-c1cc(-c2ccccn2)cn(-c2ccccc2)c1=O [Perampanel],1.05,1.03,1.03,1.01,1.02,1.05
CCCN1C[C@H](CSC)C[C@@H]2c3cccc4[nH]cc(c34)C[C@H]21.CS(=O)(=O)O [Pergolide mesylate],1.06,0.978,1.02,1.02,1.02,1.02
OCCN1CCN(CCCN2c3ccccc3Sc3ccc(Cl)cc32)CC1 [Perphenazine],1.03,1.01,1.04,0.983,1.03,1.04
CC(COc1ccccc1)N(CCCl)Cc1ccccc1.[Cl-].[H+] (configuration not stated) [Phenoxybenzamine HCl],0.978,1.01,0.984,0.997,1,1.01
CS(=O)(=O)O.Cc1ccc(N(CC2=NCCN2)c2cccc(O)c2)cc1 [Phentolamine Mesylate],1.05,0.983,1.01,0.997,0.964,1.04
CNC[C@H](O)c1cccc(O)c1.Cl [Phenylephrine HCl],1.09,0.985,0.996,1.01,1.03,1.02
CC(C)COc1ccc(CNC(=O)N(Cc2ccc(F)cc2)C2CCN(C)CC2)cc1 [Pimavanserin],0.936,0.856,0.867,0.873,0.887,0.876
O=c1[nH]c2ccccc2n1C1CCN(CCCC(c2ccc(F)cc2)c2ccc(F)cc2)CC1 [Pimozide],0.991,0.972,0.991,0.974,0.959,1.01
CCC/N=C1\S/C(=C\c2ccc(OC[C@H](O)CO)c(Cl)c2)C(=O)N1c1ccccc1C [Ponesimod],1.04,0.989,1.01,0.996,1.04,1.02
CCCN[C@H]1CCc2nc(N)sc2C1 [Pramipexole],1.1,1.01,1.03,1.07,1.05,1.08
CC(=O)Oc1cc2c(s1)CCN(C(C(=O)C1CC1)c1ccccc1F)C2 (configuration not stated) [Prasugrel],1.13,1.02,1.03,1.05,1.04,1.03
CC(=O)[C@H]1CC[C@H]2[C@@H]3CC=C4C[C@@H](O)CC[C@]4(C)[C@H]3CC[C@]12C [Pregnenolone],1.09,0.999,1.03,1.02,1.02,1.05
CCC1(c2ccccc2)C(=O)NCNC1=O [Primidone],1.02,1.03,1.04,0.982,1.03,1.06
CC(C)NCC(O)COc1cccc2ccccc12.[Cl-].[H+] (configuration not stated) [Propranolol HCl],1.1,1.01,1.04,1.11,1.03,1.06
COCCCN1CCC(NC(=O)c2cc(Cl)c(N)c3c2OCC3)CC1 [Prucalopride],1.07,1.01,1.05,1.02,1.04,1.06
CN(C)C(=O)Oc1ccc[n+](C)c1.[Br-] [Pyridostigmine Bromide],1.07,0.997,1.05,1.04,1.03,1.04
O=C(O)C=CC(=O)O.OCCOCCN1CCN(C2=Nc3ccccc3Sc3ccccc32)CC1.OCCOCCN1CCN(C2=Nc3ccccc3Sc3ccccc32)CC1 [Quetiapine Fumarate],1.07,1.04,1.02,1.03,1.02,1.07
CC(=O)SCC(Cc1ccccc1)C(=O)NCC(=O)OCc1ccccc1 (configuration not stated) [Racecadotril],1.07,1.01,1.02,1.04,1.02,1.08
O=C(c1ccc(OCCN2CCCCC2)cc1)c1c(-c2ccc(O)cc2)sc2cc(O)ccc12.[Cl-].[H+] [Raloxifene HCl],0.931,0.996,0.957,0.82,0.931,0.996
CCC(=O)NCC[C@@H]1CCc2ccc3c(c21)CCO3 [Ramelteon],1.1,1.03,1.03,1.05,1.05,1.06
CN/C(=C\[N+](=O)[O-])NCCSCc1ccc(CN(C)C)o1 [Ranitidine],1.1,1.03,1.01,1.07,1.04,1.03
c1nc2nc(Nc3ccc(N4CCOCC4)cc3)nc(NC3CCCCC3)c2[nH]1 [Reversine],0.65,0.662,0.689,0.648,0.643,0.677
